Results from a melting point compilation (Tetko et al.; mined from patent text by program, amines drawn as free bases though some values may be those of a salt).

| Structure (SMILES) | melting point [°C] |
| --- | --- |
| NCCc1c[nH]c2cc(Cl)c(NC(N)=O)cc12 | 212 to 213 |
| CC(N)CSc1c[nH]c2ccccc12 (stereo not drawn) | 110 to 112 |
| O=C(c1ccc(Nc2ccnc3cc(C(F)(F)F)ccc23)cc1)N1CCN(S(=O)(=O)c2ccc(F)cc2)CC1 | 251 to 253 |
| CCCCn1ncc(/C=C(\Cc2cc3c(cc2OC)OCO3)C(=O)O)c1-c1cc(Cl)c(C)cc1OCc1ccccc1C(=O)O | 114 to 116 |
| CCCCCCCCCCCCCCCCCCOc1cc(OCCCOc2ccc(S(C)(=O)=O)cc2)cc(C(=O)OC)c1 | 101 to 102 |
| O=[N+]([O-])c1ccc(-c2ccc(S(=O)c3ccc(Cl)c([N+](=O)[O-])c3)cc2)cc1 (stereo not drawn) | 220 to 222 |
| Nc1ccc(CNC(=O)C2Cc3ccccc3N2S(=O)(=O)c2ccc(-c3cccc(C(F)(F)F)c3)cc2)cc1 (stereo not drawn) | 84 |
| O=C(O)CCC(=NO)c1ccc2c3c(oc2c1)CCCC3 | 148 to 150 |
| O=c1c(-c2ccccc2Cl)cc2cnc(NC3C4CN(Cc5ccccc5)CC43)nc2n1C1CCNC1 (stereo not drawn) | 203 to 206 |
| NS(=O)(=O)c1cc2[nH]c(CO)nc2cc1Cl | 247 to 250 |
| C/C=C/CNc1cccc(-c2ccnc3c(C(=O)c4cccs4)cnn23)c1 | 110 to 113 |
| CCN(C(=O)OC(C)(C)C)c1cnn(C(C)(C)C)c1Cl | 50 to 52 |
| CCCS(=O)(=O)N[C@H](C(=O)NCCc1ccc(OCC#Cc2ccc(Cl)cc2)c(OC)c1)C(C)C | 131 to 133 |
| N#Cc1cc(Cc2ccccc2Cl)ccc1N | 79 to 80 |
| COC1=CC(C=C(C#N)C(=O)O)CC(OC)=C1OC (stereo not drawn) | 102 to 105 |
| C=C(c1ccccc1)c1ccc(N(C)C)cc1 | 51 to 52 |
| Cc1oc(-c2ccc(C(F)(F)F)cc2)nc1COc1ccc(CN(O)C(=O)NN)cc1 | 94 to 95 |
| O=C(O)c1ccc(CC(NC(=O)C(c2ccccc2)c2ccccc2)c2ccccc2)cc1 (stereo not drawn) | 245 to 248 |
| COc1ccc2c(n1)c(CCNC(C)=O)c1n2CCCC1 | 89 to 90 |
| COc1ccc(CC2CNC(=O)N2)cc1O (stereo not drawn) | 192 to 202 |
| CCCc1ccc(-c2ccn([C@H](CC(=O)O)C(=O)N[C@H](C(=O)NC)C(C)(C)C)c2)cc1 | 104 to 106 |
| O=C(O)Cc1c(Cl)nc(-c2ccc(O)cc2)n1Cc1ccccc1 | 140 to 145 |
| C=CCOc1cc2c(cc1CC=C)CCC(=O)N2 | 137 to 139 |

| Structure (SMILES) | melting point [°C] |
| --- | --- |
| CCc1cn(C2CC(O)C(CNC)O2)c(=O)[nH]c1=O (stereo not drawn) | 145 to 147 |
| N#CC1CN(C(=O)[C@H](NC(=O)c2c[nH]c3ncc(-c4ccc(C(F)(F)F)cc4)nc23)C2CC2)C1 | 207 to 209 |
| COc1cc2c(cc1OC)-c1ncc(C(N)=O)c(=O)n1CC2 | 313 to 315 |
| CCOC(=O)C1(C(=O)Nc2ccc(C(F)(F)F)cc2)CC1 | 80.5 to 82 |
| O=C(c1ccccc1)c1cccc2c1CCC2C(=O)O (stereo not drawn) | 100 to 102 |
| O=C1c2ccc(Nc3ccc(F)cc3F)cc2CCc2ccc(OCCCN3CCOCC3)cc21 | 114 |
| COc1cc(S(C)=O)ccc1-c1ccc(C#N)c(=O)[nH]1 (stereo not drawn) | 239 to 241 |
| CCOC(=O)C1=C(COCc2cc(=O)[nH]c(N)n2)NC(C)=C(C(=O)OC)C1c1ccccc1Cl (stereo not drawn) | 185 to 187 |
| Cc1ccc(-c2c3c(cc4ccc5c(c24)OCO5)C(=O)NC3=O)cc1 | 297 to 299 |
| CCCCN1CCC(n2nc(-c3cc(Cl)cc4c3OCC4)oc2=O)CC1 | 134 |
| Oc1ccc(CCNCC(O)c2ccc(OCc3ccccc3)cc2)cc1OCc1ccccc1 (stereo not drawn) | 124 to 125 |
| COc1cc(Cl)c(N)c(C(=O)O)c1OC | 140 to 142 |
| N#CC[C@H]1CCn2c(cc3ccccc32)C1 | 100 to 101 |
| O=C(O)c1cnc(C(F)(F)F)nc1C(F)(F)F | 59 |
| CC(C)CCS(=O)(=O)NC(=O)OCc1cc(OC(C)C)nn1Cc1ccc(Cl)cc1Cl | 104 to 107 |
| Cc1cc(Cl)ccc1-c1nc(=O)c2ccccc2s1 | 134 |
| Nc1ccc2nc(N)sc2c1 | 202 to 203 |
| O=C(O)C1CCCc2c(-c3ccc(C(F)(F)F)cc3)noc2C1 (stereo not drawn) | 222 to 225 |
| Cc1c(Sc2cccnc2)sc2ccc(C(=O)O)cc12 | 220 to 222 |
| COc1ccc(Cl)cc1CCC(=O)O | 91 to 92 |
| OCCC1CCc2cc(OCc3ccc4ccccc4c3)ccc2C1 (stereo not drawn) | 90 to 91 |
| Cc1noc(C)c1-c1ccc2c(c1)ncc1ncn(-c3ccccc3C(C)(C)C)c12 | 216 |
| CCOC(=O)c1ncc2[nH]c3ccc([N+](=O)[O-])cc3c2c1C | 272 to 275 |

| Structure (SMILES) | melting point [°C] |
| --- | --- |
| Cc1cccc(C(=O)CSC(=S)Nc2ccc(Cl)cn2)c1 | 126 |
| CCCc1nn(-c2ccc(C(F)(F)F)cn2)cc1CCCOc1cc(CCC(=O)O)cc(OC)c1 | 98 to 99 |
| COC(=O)c1ccc(CC(C)NCC(O)c2ccc(Cl)cc2)cc1 (stereo not drawn) | 134 to 135 |
| CC(C(=O)O)c1ccc2c(c1)CCc1cccnc1S2 (stereo not drawn) | 181 to 183 |
| CC(C)OC(=O)C(C)n1c(C(F)(F)F)nc2cc(F)c(-n3c(=O)cc(C(F)(F)F)n(C)c3=O)cc21 (stereo not drawn) | 133 to 135 |
| C[C@H](CSc1nc2ccccc2[nH]1)Nc1nc(Cl)nc2c1ncn2[C@@H]1O[C@H](CO)[C@@H](O)[C@H]1O | 213 to 215 |
| CSc1ccc(-c2ccc(=O)[nH]c2C)cc1 | 211 to 212 |
| O=C1NCCc2[nH]c3c(F)ccc(F)c3c21 | 221 to 223 |
| O=C(Nc1ccccc1C(=O)NCCc1nccs1)c1ccc(Cl)cc1 | 156 to 160 |
| CC1(C)Cc2ccccc2C1c1cncnc1S (stereo not drawn) | 184 to 186 |
| Cc1cc(Oc2ccsc2C(F)(F)F)nc(-c2ccc(C(F)(F)F)cc2)c1 | 52.5 to 55.5 |
| CC(=O)OCC12CCC(OC(C)=O)CC1CCC1C2CCC2(C)C(OC(=O)C(C)(C)C)CCC12O (stereo not drawn) | 155 to 156 |
| CCOC(=O)C(=CNC1CC1)C(=O)c1cc(F)c(Cl)cc1Cl | 89 to 90 |
| CCCC(=O)OC1CSC(Oc2cccnc2)C(OC(=O)CCC)C1OC(=O)CCC (stereo not drawn) | 70 |
| O=S(=O)(Nc1cccc(CCOCc2nc(-c3ccc(F)cc3)sc2Br)c1)C(F)(F)F | 84 to 85 |
| CCOC(=O)Nc1cc2c(c(N)n1)N=C(c1ccccc1)[C@@H](C)N2 | 148 to 151 |
| C#Cc1c(C#N)nn(-c2c(Cl)cc(C(F)(F)F)cc2Cl)c1Br | 134 to 135 |
| OCc1nc(-c2ccc3c(c2)Nc2ccccc2S3)cs1 | 120 to 122 |
| CN1CCN(Cc2ccc(-c3ccc(-c4cn([C@H]5CN6CCC5CC6)nn4)s3)cc2)CC1 | 214 |
| COC(=O)[C@@H]1CCCN1C(=O)CCC(=O)c1ccc(Br)cc1 | 78 to 82 |
| Cc1cc(-n2ccnc2)c2cccc(OCc3c(Cl)ccc(S(=O)(=O)N4CCC[C@H]4C(=O)NCCCN(C)C)c3Cl)c2n1 | 80 |

Results, then the molecule that gave them:

| melting point [°C] | Structure (SMILES) |
| --- | --- |
| 168 to 169 | CCCCc1nc(Cl)c(CO)n1Cc1ccc(-c2ccccc2-c2nnn(C(c3ccccc3)(c3ccccc3)c3ccccc3)n2)cc1 |
| 179 to 181 | O=C(O)C1CC(=O)N(Cc2ccccc2)C1c1c(Cl)cccc1Cl (stereo not drawn) |
| 189 to 190 | NS(=O)(=O)c1ccc(S(=O)(=O)N2CCc3cccc(-c4ccc(F)cc4)c32)cc1 |
| 137 to 140 | Cc1c(C)c2c(c(C)c1NC(=O)OCC(Cl)(Cl)Cl)C(c1ccc(C(C)C)cc1)CO2 (stereo not drawn) |
| 197 to 200 | COc1ccc(C2C(C#N)=C(N)OC3=C2C(=O)CC(C)(C)C3)cc1 (stereo not drawn) |
| 178 to 183 | Cc1cc(F)ccc1-c1cc(NCCNC(=O)NC2CCCCC2)nc2c1C=NC(=O)C2c1c(F)cccc1F (stereo not drawn) |
| 130 | CCN1CCC(CCC2CCN(c3ncnc4cc(OC)c(OC)cc34)CC2)S1(=O)=O (stereo not drawn) |
| 266 to 267 | CCOCC1COc2c(cc3ncc(C(=O)O)c(O)c3c2Cl)O1 (stereo not drawn) |
| 184 to 186 | CCc1cc(C)cc(CC)c1C(C(N)=O)C(N)=O |
| 112 to 114 | Cc1ccc(S(=O)(=O)N2CCC(Sc3ccc(Cl)cc3)CC2)cc1 |
| 128 to 130 | COc1ccc2c(c1)c(COC(C)(C)C(=O)O)nn2Cc1ccccc1 |
| 176 to 177 | CCOC(=O)c1nc(-c2cccc(C)c2)cn1C |
| 177 | C/C(=C\c1ccc(OC(C)C)cc1Oc1ncc(C(F)(F)F)cc1Cl)C(=O)NS(=O)(=O)NC1CCC(C)CC1 (stereo not drawn) |
| 111 to 112 | COc1ccc(C2(C#N)CCC(=O)CC2)cc1OC1CCCC1 |
| 189 to 190 | COc1ccc2c(c1)Sc1c(cc(OC)c(OC(C)=O)c1Br)N2C |
| 265 to 268 | Clc1ccc2c(NCc3ccccc3)nc(-n3ccnc3)nc2c1 |

| melting point [°C] | Structure (SMILES) |
| --- | --- |
| 211 to 216 | Cc1cnc2ncc(-c3cccc(-c4ccccc4C#N)c3)n2n1 |
| 221 to 222 | COc1ccc(-c2nc(Cl)c(Oc3ccccc3OC)c(NS(=O)(=O)c3ccc(C(C)(C)C)cc3)n2)cc1 |
| 179 to 180 | CC(=O)Oc1c(C)cc(Oc2ccc3nc(CO)n(C)c3n2)c(C)c1C |
| 172 to 173 | O=c1[nH]c(N2CCN(CCCCN3CCCCC3)CC2)cc2c(Cl)cccc12 |
| 249 to 251 | O=C(Nc1ccc(Cl)cn1)c1nc(-c2ccccc2)c2ccccc2c1O |
| 234 to 235 | CS(=O)c1ccc(-c2coc3ccc(-c4nnc(S)o4)cc23)cc1 (stereo not drawn) |
| 231 to 233 | CN(c1cccc2cc(C3=NCC(CC(=O)O)S3)[nH]c12)S(=O)(=O)c1ccccn1 (stereo not drawn) |
| 70 to 74 | CC1=NOCC1(C)S(=O)(=O)n1nc(Cl)nc1-c1ccccc1 (stereo not drawn) |
| 150 to 152 | C=CCSc1nc(=O)[nH]cc1F |
| 116 to 118 | O=C1c2ccccc2CN1C1CCN(Cc2ccccc2)CC1 |
| 93 to 95 | CCCCc1c(-c2ccncc2)[nH]c(-c2ccncc2)c1C(C)=O |
| 115 to 116 | CC(=O)N1CCCCc2ccc(C(=O)CCC3CCN(Cc4ccccc4)CC3)cc21 |
| 250 to 255 | Nc1nc(O)c2cc(CN(Cc3c[nH]c(=O)[nH]c3=O)c3ccc(C(=O)N[C@@H](CCC(=O)O)C(=O)O)cc3)ccc2n1 |
| 233 to 235 | CCn1ncc2c(NC)c3c(nc21)C(=NC)c1ccccc1CC3 |
| 78.6 to 79.8 | NCc1cc2c(Oc3ccc(Cl)cc3)cncc2s1 |
